The assay concerns the target T1, β-catenin (Homo sapiens, UniProt P35222).
T1 sequence (P35222 1-781): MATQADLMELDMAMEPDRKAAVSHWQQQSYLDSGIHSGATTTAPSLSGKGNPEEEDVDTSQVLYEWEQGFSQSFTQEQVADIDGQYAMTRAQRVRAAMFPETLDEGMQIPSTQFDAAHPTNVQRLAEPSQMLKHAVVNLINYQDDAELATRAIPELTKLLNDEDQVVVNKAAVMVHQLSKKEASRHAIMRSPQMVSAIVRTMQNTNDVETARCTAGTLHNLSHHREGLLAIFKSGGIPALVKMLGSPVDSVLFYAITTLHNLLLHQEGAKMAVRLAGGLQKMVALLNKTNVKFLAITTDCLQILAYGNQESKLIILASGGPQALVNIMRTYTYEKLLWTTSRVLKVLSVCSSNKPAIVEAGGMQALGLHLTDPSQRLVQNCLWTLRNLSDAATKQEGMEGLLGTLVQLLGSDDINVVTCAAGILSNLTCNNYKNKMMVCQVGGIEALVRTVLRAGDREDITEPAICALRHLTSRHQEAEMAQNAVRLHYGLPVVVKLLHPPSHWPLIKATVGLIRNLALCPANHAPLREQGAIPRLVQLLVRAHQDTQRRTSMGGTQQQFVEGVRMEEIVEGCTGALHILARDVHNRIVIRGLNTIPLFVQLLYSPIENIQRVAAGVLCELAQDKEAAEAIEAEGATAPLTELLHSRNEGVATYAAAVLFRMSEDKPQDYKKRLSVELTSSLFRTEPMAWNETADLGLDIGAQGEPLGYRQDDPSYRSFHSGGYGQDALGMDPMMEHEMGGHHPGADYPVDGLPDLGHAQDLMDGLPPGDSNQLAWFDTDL
Nature of the assay: KD50 measurement using competitive fluorescence polarization (FP) with labelled TCF4. Type of assay: binding. The note with it: fluorescence polarization, β-catenin. The procedure, abridged:
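Labelled TCF4 (5 nM) mixed with 100 nM β-catenin at room temperature; inhibitor added as serial dilutions from 10 nM to 30 uM. Polarization read at excitation 470 nm/emission 520 nm; binding displacement lowers polarization. Three independent runs.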

Each structure is given as a SMILES string. Like-named read-outs stand apart in the source and are kept apart here. *1 amine or outer side, *2 acyl side, *3 side chain or, on linkers, in order; H or OH if unused. Where a SMILES comes first, the peptide text is derived from it. Bridges are numbered along the chain shown (N, C = ends). [ ]: non-standard residue; d: D form. Glutaryl = O=C(CCCC(=O)[*:2])[*:1]; NMeNva = CCC[C@H](NC)C(=O)O

One may read the Kd as the constant that tells how readily two partners part at equilibrium. On to `CC[C@H](C)[C@@H]1NC(=O)[C@H](CC(C)C)NC(=O)[C@H](Cc2ccccc2)NC(=O)[C@H](Cc2c[nH]c3ccccc23)NC(=O)[C@@H](N)CCCCNC(=O)CCNC(=O)C[C@@H](C(=O)O)NC(=O)[C@H](Cc2c[nH]c3ccccc23)NC(=O)[C@H](C)NC(=O)[C@H](CS)NC1=O` [compound 260] (HELM PEPTIDE1{K.W.F.L.I.C.A.W.[O=C(O)[C@H](CC(=O)[*:2])N[*:1]].[bAla]}$PEPTIDE1,PEPTIDE1,1:R3-10:R2$$$V2.0), for which the “β-Cat FP Hill slope” value amounted to 1.53. In addition, the equilibrium dissociation constant (Kd) (read-out: β-Cat FP KD) is 1 to 10 µM.
The matching figures for `CCC[C@H]1C(=O)N[C@@H](CCC(N)=O)C(=O)N[C@@H](CO)C(=O)N[C@@H](CC(C)C)C(=O)N[C@@H](Cc2ccccc2)C(=O)N(C)[C@@H](CCC)C(=O)N2CCC[C@H]2C(=O)N2CCC[C@H]2C(=O)N(C)[C@@H](CCC)C(=O)N[C@H](C(N)=O)CCCCNC(=O)CCCC(=O)N[C@@H](CCSC)C(=O)N[C@@H](CCSC)C(=O)N1C` [compound 3] (MM[NMeNva]QSLF[NMeNva]PP[NMeNva]K-NH2; linker N-12 via Glutaryl): 0.98 and 10 to 30 µM.
For `CC[C@H](C)[C@H](NC(=O)[C@H](CC(C)C)NC(=O)[C@H](Cc1ccccc1)NC(=O)[C@H](Cc1c[nH]c2ccccc12)NC(=O)[C@H](CCSC)NC(C)=O)C(=O)N[C@@H](C)C(=O)N[C@@H](Cc1ccccc1)C(=O)N[C@@H](Cc1c[nH]c2ccccc12)C(=O)NCC(=O)O` [compound 274] (Ac-MWFLIAFWG-OH), the “β-Cat FP Hill slope” value is 2.2. In addition, the Kd (read-out: β-Cat FP KD) is less than 0.4 µM.
The matching figures for `CC(=O)N[C@@H](Cc1c[nH]c2ccccc12)C(=O)N(C)[C@@H](C)C(=O)N[C@@H](CCC(N)=O)C(=O)N[C@H]1CCCCNC(=O)CC[C@@H](C(=O)N[C@@H](Cc2c[nH]cn2)C(=O)N[C@H](C(=O)N[C@@H](CCC(N)=O)C(=O)N[C@@H](CCCNC(=N)N)C(=O)N[C@H](C(=O)N[C@@H](Cc2c[nH]c3ccccc23)C(=O)NCC(N)=O)C(C)C)C(C)C)NC(=O)[C@H](CC(=O)O)NC(=O)[C@H](CC(C)C)NC(=O)[C@H](C2CCCCC2)NC1=O` [compound 421] (HELM PEPTIDE1{[ac].W.[meA].Q.K.[O=C([C@@H](N[*:1])C1CCCCC1)[*:2]].L.D.E.H.V.Q.R.V.W.G.[am]}$PEPTIDE1,PEPTIDE1,5:R3-9:R3$$$V2.0): 0.7 and less than 0.4 µM.
`CCCCCCCCCCCC(=O)N[C@@H](Cc1c[nH]c2ccccc12)C(=O)N(C)[C@@H](C)C(=O)N[C@@H](CCC(N)=O)C(=O)N[C@H]1CCCCNC(=O)C[C@@H](C(=O)N[C@@H](Cc2c[nH]cn2)C(=O)N[C@H](C(=O)N[C@@H](CCC(N)=O)C(=O)N[C@@H](C)C(=O)N[C@H](C(N)=O)C(C)C)C2CCCCC2)NC(=O)[C@H](CC(N)=O)NC(=O)[C@H](CC(C)C)NC(=O)[C@H]([C@@H](C)CC)NC1=O` [compound 453] (HELM PEPTIDE1{[CCCCCCCCCCCC(=O)[*:2]].W.[meA].Q.K.I.L.N.D.H.[O=C([C@@H](N[*:1])C1CCCCC1)[*:2]].Q.A.V.[am]}$PEPTIDE1,PEPTIDE1,5:R3-9:R3$$$V2.0) returned a Kd (β-Cat FP KD) of 1 to 10 µM.
Consider `CC[C@H](C)[C@H](NC(=O)[C@H](CC(C)C)NC(=O)[C@@H](N)Cc1ccccc1)C(=O)N[C@@H](CO)C(=O)N[C@@H](Cc1ccccc1)C(=O)N[C@@H](Cc1c[nH]c2ccccc12)C(=O)NCC(=O)O` [compound 241] (H-FLISFWG-OH), for which the “β-Cat FP Hill slope” value came out at 0.7. In addition, under “read-out: β-Cat FP KD”, the Kd lay in the range of 1 to 10 µM.
Take `CC[C@@H]1NC(=O)[C@H]([C@@H](C)CC)NC(=O)[C@H](CC(C)C)NC(=O)[C@H](Cc2ccccc2)NC(=O)[C@H](Cc2c[nH]c3ccccc23)NC(=O)CCCCCNC(=O)C[C@@H](C(=O)O)NC(=O)[C@H](Cc2c[nH]c3ccccc23)NC(=O)[C@H](C)NC1=O` [compound 246] (HELM PEPTIDE1{[O=C(CCCCCN[*:1])[*:2]].W.F.L.I.[Abu].A.W.D}$PEPTIDE1,PEPTIDE1,1:R1-9:R3$$$V2.0): the “β-Cat FP Hill slope” value worked out at 3. The equilibrium dissociation constant (Kd) (read-out: β-Cat FP KD) is less than 0.4 µM.
For the compound `CC[C@H](C)[C@@H]1NC(=O)[C@@H](NC(=O)[C@H](CCC(N)=O)NC(=O)[C@H](C)N(C)C(=O)[C@H](Cc2c[nH]c3ccccc23)NC(C)=O)CCCCNC(=O)C[C@@H](C(=O)N[C@@H](Cc2c[nH]cn2)C(=O)N[C@H](C(=O)N[C@@H](CCC(N)=O)C(=O)N[C@@H](C)C(=O)N[C@H](C(=O)N[C@@H](Cc2c[nH]c3ccccc23)C(N)=O)C(C)C)C2CCCCC2)NC(=O)[C@H](CC(N)=O)NC(=O)[C@H](CC(C)C)NC1=O` [compound 458] (HELM PEPTIDE1{[ac].W.[meA].Q.K.I.L.N.D.H.[O=C([C@@H](N[*:1])C1CCCCC1)[*:2]].Q.A.V.W.[am]}$PEPTIDE1,PEPTIDE1,5:R3-9:R3$$$V2.0), the “β-Cat FP Hill slope” value amounted to 0.7. The Kd (read-out: β-Cat FP KD) lay in the range of 0.4 to 1 µM.
Regarding `CC[C@H](C)[C@@H]1NC(=O)[C@@H](NC(=O)C(C)(C)NC(=O)[C@H](C)N(C)C(=O)[C@H](Cc2c[nH]c3ccccc23)NC(C)=O)CCCCNC(=O)CC[C@@H](C(=O)N[C@@H](Cc2c[nH]cn2)C(=O)N[C@H](C(=O)N[C@@H](CCC(N)=O)C(=O)N[C@@H](CCCNC(=N)N)C(=O)N[C@H](C(=O)N[C@@H](Cc2c[nH]c3ccccc23)C(=O)NCC(N)=O)C(C)C)C2CCCCC2)NC(=O)[C@H](CC(=O)O)NC(=O)[C@H](CC(C)C)NC1=O` [compound 418] (HELM PEPTIDE1{[ac].W.[meA].[Aib].K.I.L.D.E.H.[O=C([C@@H](N[*:1])C1CCCCC1)[*:2]].Q.R.V.W.G.[am]}$PEPTIDE1,PEPTIDE1,5:R3-9:R3$$$V2.0), the “β-Cat FP Hill slope” value turned out to be 1.03. For the same compound, the Kd (read-out: β-Cat FP KD) was greater than 30 µM.
For `CC[C@H](C)[C@@H]1NC(=O)[C@H](CC(C)C)NC(=O)[C@H](Cc2ccccc2)NC(=O)[C@@H](NC(C)=O)CCCCNC(=O)C[C@@H](C(=O)O)NC(=O)[C@H](Cc2c[nH]c3ccccc23)NC(=O)[C@H](Cc2ccccc2)NC(=O)[C@H](C)NC1=O` [compound 254] (HELM PEPTIDE1{[ac].K.F.L.I.A.F.W.D}$PEPTIDE1,PEPTIDE1,2:R3-9:R3$$$V2.0), the Kd (read-out: β-Cat FP KD) is greater than 30 µM.
As to `CCCCCCCCCCCC(=O)N[C@@H](Cc1c[nH]c2ccccc12)C(=O)N(C)[C@@H](C)C(=O)N[C@@H](CCC(N)=O)C(=O)N[C@@H](CO)C(=O)N[C@H](C(=O)N[C@@H](CC(C)C)C(=O)N[C@@H](CC(=O)O)C(=O)N[C@H]1CCC(=O)NCCCC[C@@H](C(=O)N[C@H](C(=O)N[C@@H](Cc2c[nH]c3ccccc23)C(=O)NCC(N)=O)C(C)C)NC(=O)[C@H](CCC(N)=O)NC(=O)[C@H](C(C)C)NC(=O)[C@H](Cc2c[nH]cn2)NC1=O)[C@@H](C)CC` [compound 439] (HELM PEPTIDE1{[CCCCCCCCCCCC(=O)[*:2]].W.[meA].Q.S.I.L.D.E.H.V.Q.K.V.W.G.[am]}$PEPTIDE1,PEPTIDE1,9:R3-13:R3$$$V2.0), the Kd (read-out: β-Cat FP KD) was less than 0.4 µM.
Take `CC[C@H](C)[C@H](NC(=O)[C@H](CC(C)C)NC(=O)[C@@H]1CCC(=O)NCCCC[C@H](N)C(=O)N[C@@H](Cc2c[nH]c3ccccc23)C(=O)N1)C(=O)N[C@@H](CO)C(=O)N[C@@H](Cc1ccccc1)C(=O)N[C@@H](Cc1c[nH]c2ccccc12)C(=O)NCC(=O)O` [compound 232] (HELM PEPTIDE1{K.W.E.L.I.S.F.W.G}$PEPTIDE1,PEPTIDE1,1:R3-3:R3$$$V2.0): the “β-Cat FP Hill slope” value was determined as 2.73. For the same compound, the Kd (read-out: β-Cat FP KD) was in the range of 1 to 10 µM.
As to `CC[C@H](C)[C@@H]1NC(=O)[C@H](CC(C)C)NC(=O)[C@H](CC2CCCCC2)NC(=O)[C@H](Cc2c[nH]c3ccccc23)NC(=O)[C@@H](NC(C)=O)CCCCNC(=O)C[C@@H](C(=O)O)NC(=O)[C@H](Cc2c[nH]c3ccccc23)NC(=O)[C@H](C)NC(=O)[C@H](CO)NC1=O` [compound 255] (HELM PEPTIDE1{[ac].K.W.[Cha].L.I.S.A.W.D}$PEPTIDE1,PEPTIDE1,2:R3-10:R3$$$V2.0), the Kd (read-out: β-Cat FP KD) was greater than 30 µM.
Turning to `CC[C@H](C)[C@H](NC(=O)[C@H](CO)NC(=O)[C@H](CCC(N)=O)NC(=O)[C@H](C)N(C)C(=O)[C@H](Cc1c[nH]c2ccccc12)NC(C)=O)C(=O)N[C@@H](CC(C)C)C(=O)N[C@@H](CC(=O)O)C(=O)N[C@H]1CCC(=O)NCCCC[C@@H](C(=O)N[C@H](C(=O)N[C@@H](Cc2c[nH]c3ccccc23)C(=O)NCC(N)=O)C(C)C)NC(=O)[C@H](CCC(N)=O)NC(=O)[C@H](C(C)C)NC(=O)[C@H](Cc2c[nH]cn2)NC1=O` [compound 437] (HELM PEPTIDE1{[ac].W.[meA].Q.S.I.L.D.E.H.V.Q.K.V.W.G.[am]}$PEPTIDE1,PEPTIDE1,9:R3-13:R3$$$V2.0), the “β-Cat FP Hill slope” value came out at 0.7. Besides, the Kd (read-out: β-Cat FP KD) is less than 0.4 µM.
